Values quoted from earlier work in patent US5519028A, “Antiviral preparations” (priority 1992, dated 1996).

Tested on: viruses of vaccine
Settings: intracutaneously 200-600 μg or 2.5-500 mg/day; cited from earlier work

Compound: CCc1ccc2c3[nH]c4ccccc4c3cc[n+]2c1 [flavopereirine]
- appearance and development of vital papules: prevents the appearance and development of vital papules
